Patent US20120077831A1, “METHODS AND ASSAYS FOR THE TREATMENT OF IRRITABLE BOWEL SYNDROME” (priority 2009, published 2012)

Assays:
[1] = test system: patients suffering from IBS-D or IBS-A; test: phase 2a clinical trial in IBS patients: weekly global assessment and Bristol Stool Scale; type: in vivo, human
Procedure: (§1) A randomized, double-blind, placebo-controlled phase 2a clinical trial was conducted to assess the safety and efficacy of a TPH inhibitor, (S)-2-amino-3-(4-(2-amino-6-((R)-2,2,2-trifluoro-1-(3′-methoxybiphenyl-4-yl)ethoxy)pyrimidin-4-yl)phenyl)propanoic acid, in 155 patients suffering from IBS-D or IBS-A, based on Rome III criteria. Capsules containing the compound or placebo were orally administered. Two dose levels were tested: 250 mg QID and 1000 mg QID. A two-week run-in period was used to establish baseline symptoms, followed by a 28 day randomized, double-blind treatment period. There was then a two-week follow-up period.
(§2) During the study, patients' urine and blood were obtained to assess 5-HIAA and 5-HT levels. Methods used to assess clinical endpoints were: 1) global assessment by weekly questioning regarding adequate relief of IBS pain and discomfort; and 2) Bristol Stool Scale was used to assess stool consistency by daily automated telephonic IVRS contact.

5-HIAA and 5-HT levels = test: phase 2a clinical trial in IBS patients: blood 5-HT and 24 hour urinary 5-HIAA levels; type: in vivo, human; details: oral dosing
Procedure: as §1, §2

In the case of `COc1cccc(-c2ccc([C@@H](Oc3cc(-c4ccc(C[C@H](N)C(=O)O)cc4)nc(N)n3)C(F)(F)F)cc2)c1` [(S)-2-amino-3-(4-(2-amino-6-((R)-2,2,2-trifluoro-1-(3′-methoxybiphenyl-4-yl)ethoxy)pyrimidin-4-yl)phenyl)propanoic acid], the “improvement in global response in relation to baseline serotonin levels (5-HIAA in 24 hour urine prior to dosing)” value ([1]; IBS patients with comparatively high baseline levels versus those without) was “greater beneficial effect in IBS patients who had comparatively high baseline levels”, the “weekly global assessment (adequate relief of IBS pain and discomfort)” value ([1]; high dose arm (1000 mg QID, oral capsules) versus placebo, 28 day treatment period) was “statistically significant improvement versus placebo” and the “stool consistency (Bristol Stool Scale)” value ([1]; high dose arm (1000 mg QID, oral capsules), 28 day treatment period) was “significant improvement”. For the same compound, the “24 hour urinary 5-HIAA levels” value (5-HIAA and 5-HT levels) was “significant reduction” and the “blood 5-HT levels” value (5-HIAA and 5-HT levels) was “reduction”.
